For series [1], the target named is T1, ATP-binding cassette sub-family C member 2 (Rattus norvegicus, UniProt Q63120). Description: TP_TRANSPORTER: uptake in bile canalicular membrane vesicles (SD). Type of series: functional, cell membranes, Sprague-Dawley, Bile canalicular membrane vesicle.
Series [2] addresses T1, ATP-binding cassette sub-family C member 2. Briefly: TP_TRANSPORTER: inhibition of DNP-SG uptake in bile canalicular membrane vesicles from SD rat. Type of series: functional, cell membranes, Sprague-Dawley, Bile canalicular membrane vesicle.
Series [3] shares this target. Briefly: TP_TRANSPORTER: uptake in bile canalicular membrane vesicles (EHBR). The class given is functional, cell membranes, Bile canalicular membrane vesicle.
The target is the same in series [4]. Description: TP_TRANSPORTER: uptake in canalicular membrane vesicles of liver (SD). Type of series: functional, cell membranes, Sprague-Dawley, Canalicular membrane vesicle.
Series [5] shares this target. Description: TP_TRANSPORTER: uptake in canalicular membrane vesicles of liver (EHBR). The class given is functional, cell membranes, Canalicular membrane vesicle.

In general, Ki refers to the equilibrium dissociation constant of an inhibitor or competing ligand from its target. A higher Ki goes with weaker binding.

T1 sequence (Q63120 whole entry): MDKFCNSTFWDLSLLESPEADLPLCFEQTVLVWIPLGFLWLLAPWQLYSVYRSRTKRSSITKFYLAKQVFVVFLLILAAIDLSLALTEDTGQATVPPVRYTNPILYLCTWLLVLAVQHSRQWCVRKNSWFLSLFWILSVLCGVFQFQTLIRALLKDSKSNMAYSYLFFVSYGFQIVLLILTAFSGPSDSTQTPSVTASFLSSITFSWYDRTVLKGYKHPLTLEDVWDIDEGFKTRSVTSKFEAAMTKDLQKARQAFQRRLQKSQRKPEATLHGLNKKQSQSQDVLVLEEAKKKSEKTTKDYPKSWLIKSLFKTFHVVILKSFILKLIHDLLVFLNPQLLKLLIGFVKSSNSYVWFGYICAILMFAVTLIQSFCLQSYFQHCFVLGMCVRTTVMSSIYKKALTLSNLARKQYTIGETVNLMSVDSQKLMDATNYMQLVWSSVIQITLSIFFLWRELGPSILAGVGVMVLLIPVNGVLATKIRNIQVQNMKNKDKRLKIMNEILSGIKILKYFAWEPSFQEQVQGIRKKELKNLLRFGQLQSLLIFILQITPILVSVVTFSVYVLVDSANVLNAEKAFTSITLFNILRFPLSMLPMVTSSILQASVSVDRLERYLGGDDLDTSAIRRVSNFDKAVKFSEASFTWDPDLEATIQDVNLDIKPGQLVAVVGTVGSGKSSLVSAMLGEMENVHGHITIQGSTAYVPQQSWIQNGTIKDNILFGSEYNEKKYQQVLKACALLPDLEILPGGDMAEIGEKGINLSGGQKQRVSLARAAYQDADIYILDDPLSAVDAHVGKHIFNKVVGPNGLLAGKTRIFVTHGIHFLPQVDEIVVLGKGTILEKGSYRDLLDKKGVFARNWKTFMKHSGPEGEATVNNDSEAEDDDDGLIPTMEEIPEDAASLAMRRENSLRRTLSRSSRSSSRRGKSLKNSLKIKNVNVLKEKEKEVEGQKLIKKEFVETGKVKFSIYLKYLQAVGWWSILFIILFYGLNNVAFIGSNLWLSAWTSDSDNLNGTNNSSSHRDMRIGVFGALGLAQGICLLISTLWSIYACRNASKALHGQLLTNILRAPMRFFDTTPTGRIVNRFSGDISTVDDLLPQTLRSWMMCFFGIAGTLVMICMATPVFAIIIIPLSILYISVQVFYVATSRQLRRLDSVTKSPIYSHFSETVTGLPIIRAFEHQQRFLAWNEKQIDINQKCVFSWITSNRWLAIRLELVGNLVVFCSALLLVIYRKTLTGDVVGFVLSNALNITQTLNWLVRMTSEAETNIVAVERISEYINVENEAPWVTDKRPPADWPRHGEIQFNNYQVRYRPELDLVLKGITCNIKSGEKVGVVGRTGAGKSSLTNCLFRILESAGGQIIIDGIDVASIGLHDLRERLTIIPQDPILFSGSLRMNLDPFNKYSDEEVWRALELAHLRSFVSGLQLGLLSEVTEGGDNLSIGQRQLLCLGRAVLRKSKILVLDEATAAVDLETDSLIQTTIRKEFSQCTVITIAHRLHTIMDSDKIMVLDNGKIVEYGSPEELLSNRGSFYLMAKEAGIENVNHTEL

Take `CCc1c2c(nc3ccc(OC[C@@H]4O[C@H](C(=O)O)[C@@H](O)[C@H](O)[C@H]4O)cc13)-c1cc3c(c(=O)n1C2)COC(=O)[C@]3(O)CC`: the Activity entry in series [1] and in series [3] was “substrate [+]” in each case. The same compound returned a Ki in series [2] of 1.62 µM.
`CCc1c2c(nc3ccc(O)cc13)-c1cc([C@@](O)(CC)C(=O)O)c(CO)c(=O)n1C2`: the Activity entry in series [1] and in series [3] was “substrate [+]” each time. This compound gave a Ki in series [2] of 18.3 µM.
With `CCc1c2c(nc3ccc(OC(=O)N4CCC(N5CCCCC5)CC4)cc13)-c1cc([C@@](O)(CC)C(=O)O)c(CO)c(=O)n1C2`, the Activity result in series [4] and in series [5] was “substrate [+]” throughout. This compound also came in with a Ki in series [2] of 96.6 µM.
As to `CCc1c2c(nc3ccc(O[C@@H]4O[C@H](C(=O)O)[C@@H](O)[C@H](O)[C@H]4O)cc13)-c1cc([C@@](O)(CC)C(=O)O)c(CO)c(=O)n1C2`, the Activity entry in series [1] and in series [3] was “substrate [+]” each time. Affinity in series [2] was put at a Ki of 1.03 µM.

The record behind these values is ChEMBL document CHEMBL2074394, “Multispecific organic anion transporter is responsible for the biliary excretion of the camptothecin derivative irinotecan and its metabolites in rats” (J Pharmacol Exp Ther, 1997).
